Test results: patent publication US5001118A, “Method for preventing senescence and increasing bone mass” (priority 1986, dated 1991)

Assays:
ICR type mice [1] = test: General inspection of blood, daily oral administration; type: in vivo, mouse (ICR type); set-up: key: .dwnarw.: Decrease below control; →: No difference from control; .uparw.: Increase above control
Method: (§1) Solutions obtained by dissolving the present substance, 24R,25-(OH)2 -D3 in a prescribed concentration in triglyceride of a fatty acid of 8 to 10 carbon atoms containing 1% of ethanol were administered respectively, orally, forcedly and daily to three male-groups and three female-groups of ICR type mice 5 weeks old at dosages of 10, 100, and 1,000 μg/kg.day. The results are compared below with respect to the following items with those obtained of the male- and female-groups using only the solvent without the present substance.

ICR type mice [2] = test: Inspection of urine, daily oral administration; type: in vivo, mouse (ICR type); set-up: key: .dwnarw.: Decrease below control; →: No difference from control; .uparw.: Increase above control
Method: as §1

[3] = Growth curves (body weight), daily oral administration; type: in vivo, mouse (ICR type); conditions: male and female ICR mice, 10, 100, and 1,000 μg/kg.day orally
Method: as §1

[4] = test system: femurs of male Wister rats; test: Fracture test of femurs; type: in vivo, rat (Wister); conditions: rat femur, 40 μg/kg orally, 24 months; 20 kg-load cell; control 11.6 ± 2.2
Method: Male Wister rats 4 weeks old were preliminarily kept for 2 weeks. For the subsequent 24 months, the present substance, 24R,25-(OH)2 -D3, was orally administered to the pre-bred rats daily at a dosage of 40 μg/kg.day. Then, the aged rats were sacrificed and their femurs were collected and fractured with an instrument (produced by Iio Denki Co., Ltd. and marketed under trade name of "Rheodynacorder RDR-1500(D)") using a 20 kg-load cell, at a distance of 6.5 mm from the trochanter minor under the condition of a fulcrum interval of 13 mm to determine the power required for the fracture.
As regards the manner of administration, a modified feed was prepared by uniformly dispersing a prescribed amount of the present substance, 24R,25-(OH)2 -D3, in glycine and admixing the resultant dispersing mixture with a marketed feed (produced by Nippon Clea Co., Ltd. under product code of "CE-2") in such a manner as to give a final glycine concentration of 0.5% by weight and the modified feed was consumed by the rats. The administration dosage was calculated on the basis of the actual amount of the feed consumed by the rats.

C=C1CC[C@H](O)C/C1=C/C=C1\CCC[C@]2(C)[C@@H]([C@H](C)CC[C@@H](O)C(C)(C)O)CC[C@@H]12 [24R,25-(OH)2 -D3]
Amount of hemoglobin (ICR type mice [1]; female, group IV, 10 μm/kg): →
Hematocrit value (ICR type mice [1]; female, group IV, 10 μm/kg): →
Number of red blood cells (ICR type mice [1]; female, group IV, 10 μm/kg): →
Number of white blood cells (ICR type mice [1]; female, group IV, 10 μm/kg): →
Amount of hemoglobin (ICR type mice [1]; female, group V, 100 μm/kg): →
Hematocrit value (ICR type mice [1]; female, group V, 100 μm/kg): →
Number of red blood cells (ICR type mice [1]; female, group V, 100 μm/kg): →
Number of white blood cells (ICR type mice [1]; female, group V, 100 μm/kg): →
Amount of hemoglobin (ICR type mice [1]; female, group VI, 1000 μg/kg): →
Hematocrit value (ICR type mice [1]; female, group VI, 1000 μg/kg): →
Number of red blood cells (ICR type mice [1]; female, group VI, 1000 μg/kg): →
Number of white blood cells (ICR type mice [1]; female, group VI, 1000 μm/kg): →
Amount of hemoglobin (ICR type mice [1]; male, group I, 10 μm/kg): →
Hematocrit value (ICR type mice [1]; male, group I, 10 μm/kg): →
Number of red blood cells (ICR type mice [1]; male, group I, 10 μm/kg): →
Number of white blood cells (ICR type mice [1]; male, group I, 10 μm/kg): →
Amount of hemoglobin (ICR type mice [1]; male, group II, 100 μm/kg): →
Hematocrit value (ICR type mice [1]; male, group II, 100 μm/kg): →
Number of red blood cells (ICR type mice [1]; male, group II, 100 μm/kg): →
Number of white blood cells (ICR type mice [1]; male, group II, 100 μm/kg): →
Amount of hemoglobin (ICR type mice [1]; male, group III, 1000 μg/kg): →
Hematocrit value (ICR type mice [1]; male, group III, 1000 μg/kg): →
Number of red blood cells (ICR type mice [1]; male, group III, 1000 μg/kg): →
Number of white blood cells (ICR type mice [1]; male, group III, 1000 μm/kg): →
Urine ketone body (ICR type mice [2]; female, 10 μg/kg): →
Urine occult blood (ICR type mice [2]; female, 10 μg/kg): →
Urine pH (ICR type mice [2]; female, 10 μg/kg): →
Urine protein (ICR type mice [2]; female, 10 μg/kg): →
Urine sugar (ICR type mice [2]; female, 10 μg/kg): →
Urobilinogen (ICR type mice [2]; female, 10 μg/kg): →
Urine ketone body (ICR type mice [2]; female, 100 μg/kg): →
Urine occult blood (ICR type mice [2]; female, 100 μg/kg): →
Urine pH (ICR type mice [2]; female, 100 μg/kg): →
Urine protein (ICR type mice [2]; female, 100 μg/kg): →
Urine sugar (ICR type mice [2]; female, 100 μg/kg): →
Urobilinogen (ICR type mice [2]; female, 100 μg/kg): →
Urine ketone body (ICR type mice [2]; female, 1000 μg/kg): →
Urine occult blood (ICR type mice [2]; female, 1000 μg/kg): →
Urine pH (ICR type mice [2]; female, 1000 μg/kg): →
Urine protein (ICR type mice [2]; female, 1000 μg/kg): →
Urine sugar (ICR type mice [2]; female, 1000 μg/kg): →
Urobilinogen (ICR type mice [2]; female, 1000 μg/kg): →
Urine ketone body (ICR type mice [2]; male, 10 μg/kg): →
Urine occult blood (ICR type mice [2]; male, 10 μg/kg): →
Urine pH (ICR type mice [2]; male, 10 μg/kg): →
Urine protein (ICR type mice [2]; male, 10 μg/kg): →
Urine sugar (ICR type mice [2]; male, 10 μg/kg): →
Urobilinogen (ICR type mice [2]; male, 10 μg/kg): →
Urine ketone body (ICR type mice [2]; male, 100 μg/kg): →
Urine occult blood (ICR type mice [2]; male, 100 μg/kg): →
Urine pH (ICR type mice [2]; male, 100 μg/kg): →
Urine protein (ICR type mice [2]; male, 100 μg/kg): →
Urine sugar (ICR type mice [2]; male, 100 μg/kg): →
Urobilinogen (ICR type mice [2]; male, 100 μg/kg): →
Urine ketone body (ICR type mice [2]; male, 1000 μg/kg): →
Urine occult blood (ICR type mice [2]; male, 1000 μg/kg): →
Urine pH (ICR type mice [2]; male, 1000 μg/kg): →
Urine protein (ICR type mice [2]; male, 1000 μg/kg): →
Urine sugar (ICR type mice [2]; male, 1000 μg/kg): →
Urobilinogen (ICR type mice [2]; male, 1000 μg/kg): →
change of body weight (growth curves) [3]: absence of a discernible difference
Power for fracture [4]: Out of scale, so large
